What was measured:
BaF3 [1] = assay type: functional, cell-based; details: Mus musculus, BaF3, 72 h
BaF3 [2] = experiment: cells; details: Mus musculus, BaF3, 72 h
BaF3 [3] = experiment: cells; details: Mus musculus, BaF3, 72 h; remark: listed apart in the source
BaF3 [4] = experiment: cells; details: Mus musculus, BaF3, 72 h; remark: listed apart in the source
[5] = biological target: T1, Epidermal growth factor receptor (Homo sapiens, UniProt P00533, C797S/L858R/T790M); set-up: species or system Sf9
T1 sequence (P00533 25-1210 T790M/C797S/L858R limits assumed): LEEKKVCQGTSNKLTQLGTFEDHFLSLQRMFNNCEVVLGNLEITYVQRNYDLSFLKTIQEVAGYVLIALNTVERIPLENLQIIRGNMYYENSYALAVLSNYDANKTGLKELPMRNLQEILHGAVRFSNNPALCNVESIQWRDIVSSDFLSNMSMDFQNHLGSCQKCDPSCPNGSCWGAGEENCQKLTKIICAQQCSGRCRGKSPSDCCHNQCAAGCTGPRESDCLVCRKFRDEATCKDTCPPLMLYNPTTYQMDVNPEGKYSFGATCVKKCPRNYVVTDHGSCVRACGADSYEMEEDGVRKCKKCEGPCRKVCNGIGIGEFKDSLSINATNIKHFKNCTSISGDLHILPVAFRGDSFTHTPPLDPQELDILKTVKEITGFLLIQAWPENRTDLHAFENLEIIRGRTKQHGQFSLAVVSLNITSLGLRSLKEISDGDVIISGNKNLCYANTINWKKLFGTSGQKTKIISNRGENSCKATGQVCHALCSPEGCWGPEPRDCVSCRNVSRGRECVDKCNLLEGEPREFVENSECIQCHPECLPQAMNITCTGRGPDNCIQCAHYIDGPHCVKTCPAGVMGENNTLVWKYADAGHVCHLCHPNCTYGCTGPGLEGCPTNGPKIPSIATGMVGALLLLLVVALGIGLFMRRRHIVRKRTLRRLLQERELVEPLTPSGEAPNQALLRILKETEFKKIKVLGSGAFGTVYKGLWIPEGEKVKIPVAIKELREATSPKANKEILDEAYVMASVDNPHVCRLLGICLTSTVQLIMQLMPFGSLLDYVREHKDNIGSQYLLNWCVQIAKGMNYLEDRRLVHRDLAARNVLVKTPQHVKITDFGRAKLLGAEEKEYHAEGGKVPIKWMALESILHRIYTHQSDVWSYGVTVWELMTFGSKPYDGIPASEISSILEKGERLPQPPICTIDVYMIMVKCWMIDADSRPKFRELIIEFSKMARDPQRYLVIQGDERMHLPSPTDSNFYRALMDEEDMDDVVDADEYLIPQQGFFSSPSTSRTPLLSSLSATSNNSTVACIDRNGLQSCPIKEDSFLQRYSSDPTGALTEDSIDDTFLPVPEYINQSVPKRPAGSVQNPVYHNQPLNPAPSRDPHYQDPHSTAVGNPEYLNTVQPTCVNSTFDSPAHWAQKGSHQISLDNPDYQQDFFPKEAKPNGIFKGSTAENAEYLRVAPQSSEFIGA

BaF3 [6] = experiment: Antiproliferative activity against mouse BaF3 cells harboring EGFR exon 19del mutant incubated for 72 hrs by MTT assay; assay type: functional, cell-based; details: BaF3, 72 h
HCC827 = experiment: cells; details: Homo sapiens, HCC827, 72 h
[7] = Drug metabolism in pooled male human liver microsomes assessed as thioether oxidation mediated metabolite formation at 150 uM measured after 2 hrs by LC-MS analysis; assay type: ADME, Microsome
[8] = Metabolic stability in pooled male human liver microsomes at 150 uM measured after 2 hrs in presence of NADPH regenerating system by LC-MS analysis; assay type: ADME, Microsome
cells = details: Homo sapiens, NCI-H1975, 72 h
[9] = biological target: T2, Epidermal growth factor receptor (Homo sapiens, UniProt P00533); experiment: Time-dependent irreversible inhibition of N-terminal GST-tagged wildtype human EGFR cytoplasmic domain (669 to 1210 residues) extracted from Sf21 insect cells assessed as apparent inactivation constant (Ki) incubated for 240 mins in presence of ATP by fluorescence based analysis; details: read-out: Ki(app)
T2 sequence (P00533 whole entry, the tested form may be a part): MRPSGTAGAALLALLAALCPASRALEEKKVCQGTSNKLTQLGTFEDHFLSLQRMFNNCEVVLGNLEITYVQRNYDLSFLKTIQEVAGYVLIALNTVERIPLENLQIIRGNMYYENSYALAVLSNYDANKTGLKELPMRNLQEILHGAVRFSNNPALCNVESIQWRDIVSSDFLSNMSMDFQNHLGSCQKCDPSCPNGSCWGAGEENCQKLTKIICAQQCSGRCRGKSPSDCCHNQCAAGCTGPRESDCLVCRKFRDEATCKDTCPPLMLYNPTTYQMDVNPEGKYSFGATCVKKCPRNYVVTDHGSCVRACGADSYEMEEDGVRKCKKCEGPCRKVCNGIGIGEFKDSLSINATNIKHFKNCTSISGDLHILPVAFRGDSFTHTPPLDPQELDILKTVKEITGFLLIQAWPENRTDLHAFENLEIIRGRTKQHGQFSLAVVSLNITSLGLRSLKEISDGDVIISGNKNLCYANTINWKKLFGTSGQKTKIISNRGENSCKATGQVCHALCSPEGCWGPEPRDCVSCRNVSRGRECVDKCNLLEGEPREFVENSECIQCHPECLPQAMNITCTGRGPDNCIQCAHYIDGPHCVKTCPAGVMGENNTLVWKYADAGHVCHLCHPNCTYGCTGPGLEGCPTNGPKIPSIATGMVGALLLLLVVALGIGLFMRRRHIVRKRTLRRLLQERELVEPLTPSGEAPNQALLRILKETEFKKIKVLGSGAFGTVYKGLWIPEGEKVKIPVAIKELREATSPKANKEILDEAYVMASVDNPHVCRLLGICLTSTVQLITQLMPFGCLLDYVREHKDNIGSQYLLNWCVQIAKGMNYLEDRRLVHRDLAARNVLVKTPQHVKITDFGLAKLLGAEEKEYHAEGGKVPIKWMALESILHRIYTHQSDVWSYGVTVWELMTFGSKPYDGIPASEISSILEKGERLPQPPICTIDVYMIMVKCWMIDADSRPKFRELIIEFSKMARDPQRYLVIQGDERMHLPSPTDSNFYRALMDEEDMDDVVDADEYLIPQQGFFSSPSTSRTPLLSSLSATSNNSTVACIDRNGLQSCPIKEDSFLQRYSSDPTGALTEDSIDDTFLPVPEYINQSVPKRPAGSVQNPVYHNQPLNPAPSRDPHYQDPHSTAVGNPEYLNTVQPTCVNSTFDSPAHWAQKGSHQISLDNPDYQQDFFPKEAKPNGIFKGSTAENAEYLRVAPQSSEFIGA

[10] = biological target: T3, Epidermal growth factor receptor (Homo sapiens, UniProt P00533, L858R/T790M); experiment: Time-dependent irreversible inhibition of GST-tagged EGFR L858R/T790M mutant cytoplasmic domain (669 to 1210 residues) (unknown origin) assessed as apparent inactivation constant (Ki) incubated for 240 mins in presence of ATP by fluorescence based analysis; details: read-out: Ki(app)
T3 sequence (P00533 25-1210 T790M/L858R limits assumed): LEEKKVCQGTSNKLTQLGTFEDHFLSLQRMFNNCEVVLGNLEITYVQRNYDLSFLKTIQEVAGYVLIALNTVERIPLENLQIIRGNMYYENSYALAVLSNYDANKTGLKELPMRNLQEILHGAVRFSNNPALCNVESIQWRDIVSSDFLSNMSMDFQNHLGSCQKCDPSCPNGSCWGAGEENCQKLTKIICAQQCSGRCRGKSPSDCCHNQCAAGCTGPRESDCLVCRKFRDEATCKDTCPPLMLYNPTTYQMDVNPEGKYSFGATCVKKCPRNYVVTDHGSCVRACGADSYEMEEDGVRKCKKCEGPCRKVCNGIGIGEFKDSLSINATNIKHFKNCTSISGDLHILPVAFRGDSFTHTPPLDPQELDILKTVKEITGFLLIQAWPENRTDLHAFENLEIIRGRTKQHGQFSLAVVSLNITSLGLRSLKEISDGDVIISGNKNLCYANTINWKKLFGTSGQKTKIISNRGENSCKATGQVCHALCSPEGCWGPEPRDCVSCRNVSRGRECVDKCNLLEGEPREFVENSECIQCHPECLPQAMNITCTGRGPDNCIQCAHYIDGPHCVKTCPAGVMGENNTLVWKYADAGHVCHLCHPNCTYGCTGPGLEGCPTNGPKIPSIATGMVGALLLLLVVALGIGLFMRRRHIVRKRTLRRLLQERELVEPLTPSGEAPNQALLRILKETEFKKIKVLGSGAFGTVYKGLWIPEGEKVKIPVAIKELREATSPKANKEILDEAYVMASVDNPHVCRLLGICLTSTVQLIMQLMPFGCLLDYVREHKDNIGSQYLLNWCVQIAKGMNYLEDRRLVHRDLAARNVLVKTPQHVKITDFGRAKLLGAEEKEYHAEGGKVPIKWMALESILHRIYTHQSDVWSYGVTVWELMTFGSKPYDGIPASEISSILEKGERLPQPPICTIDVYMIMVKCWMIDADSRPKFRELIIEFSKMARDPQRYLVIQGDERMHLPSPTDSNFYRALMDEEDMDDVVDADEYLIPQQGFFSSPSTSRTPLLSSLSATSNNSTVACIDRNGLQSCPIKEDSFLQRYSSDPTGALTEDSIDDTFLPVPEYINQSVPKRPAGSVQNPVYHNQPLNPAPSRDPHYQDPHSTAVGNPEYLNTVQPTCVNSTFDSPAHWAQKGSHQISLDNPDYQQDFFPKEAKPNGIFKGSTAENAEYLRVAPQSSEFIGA

[11] = biological target: T4, Epidermal growth factor receptor (Homo sapiens, UniProt P00533, L858R); experiment: Time-dependent irreversible inhibition of GST-tagged EGFR L858R mutant cytoplasmic domain (669 to 1210 residues) (unknown origin) assessed as apparent inactivation constant (Ki) incubated for 240 mins in presence of ATP by fluorescence based analysis; details: read-out: Ki(app)
T4 sequence (P00533 25-1210 L858R limits assumed): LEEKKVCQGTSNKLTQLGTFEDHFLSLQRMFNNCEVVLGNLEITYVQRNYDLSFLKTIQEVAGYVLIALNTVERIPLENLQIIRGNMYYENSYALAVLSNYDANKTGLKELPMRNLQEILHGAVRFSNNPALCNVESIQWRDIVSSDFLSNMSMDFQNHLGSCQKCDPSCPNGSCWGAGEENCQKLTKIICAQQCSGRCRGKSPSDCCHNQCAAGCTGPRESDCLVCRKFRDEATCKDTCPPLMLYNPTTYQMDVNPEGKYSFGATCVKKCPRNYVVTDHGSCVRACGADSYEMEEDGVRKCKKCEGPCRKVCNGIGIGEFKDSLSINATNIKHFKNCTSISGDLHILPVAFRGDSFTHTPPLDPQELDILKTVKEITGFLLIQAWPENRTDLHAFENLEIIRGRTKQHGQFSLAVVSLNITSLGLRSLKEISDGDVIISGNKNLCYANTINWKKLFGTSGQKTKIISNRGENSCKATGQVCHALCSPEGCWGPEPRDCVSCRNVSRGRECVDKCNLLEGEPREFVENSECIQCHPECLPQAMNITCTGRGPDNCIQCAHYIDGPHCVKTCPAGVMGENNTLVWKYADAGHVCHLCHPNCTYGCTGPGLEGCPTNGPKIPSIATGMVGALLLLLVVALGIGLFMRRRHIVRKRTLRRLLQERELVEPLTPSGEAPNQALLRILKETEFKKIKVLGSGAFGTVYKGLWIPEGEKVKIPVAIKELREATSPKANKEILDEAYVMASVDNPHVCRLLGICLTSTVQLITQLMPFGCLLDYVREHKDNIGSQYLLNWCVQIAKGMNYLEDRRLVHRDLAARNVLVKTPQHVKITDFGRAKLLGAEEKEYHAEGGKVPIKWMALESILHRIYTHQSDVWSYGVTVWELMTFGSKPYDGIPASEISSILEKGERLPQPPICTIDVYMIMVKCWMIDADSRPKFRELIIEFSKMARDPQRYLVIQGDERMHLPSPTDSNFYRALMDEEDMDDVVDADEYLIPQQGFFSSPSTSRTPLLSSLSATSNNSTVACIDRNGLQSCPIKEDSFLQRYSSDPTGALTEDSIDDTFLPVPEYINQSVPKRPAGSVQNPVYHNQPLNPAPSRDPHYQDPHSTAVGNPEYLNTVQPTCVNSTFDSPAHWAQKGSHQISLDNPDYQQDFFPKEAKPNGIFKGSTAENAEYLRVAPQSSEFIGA

[12] = biological target: T2, Epidermal growth factor receptor; experiment: Reversible inhibition of wildtype EGFR (696 to 1022 residues) (unknown origin) extracted from baculovirus infected Sf9 insect cells in presence of ATP by HTRF assay
[13] = biological target: T3, Epidermal growth factor receptor; experiment: Reversible inhibition of EGFR L858R/T790M mutant (696 to 1022 residues) (unknown origin) extracted from baculovirus infected Sf9 insect cells in presence of ATP by HTRF assay
[14] = biological target: T1, Epidermal growth factor receptor; set-up: species or system Sf9; remark: listed apart in the source
[15] = biological target: T4, Epidermal growth factor receptor; experiment: Reversible inhibition of EGFR L858R mutant (696 to 1022 residues) (unknown origin) extracted from baculovirus infected Sf9 insect cells in presence of ATP by HTRF assay

| SMILES | EC50 (BaF3 [2]) [nM] | EC50 (BaF3 [3]) [nM] | EC50 (BaF3 [4]) [nM] | EC50 (BaF3 [6]) [nM] | EC50 (BaF3 [1]) [nM] | other results |
| --- | --- | --- | --- | --- | --- | --- |
| C=CC(=O)Nc1ccc(OC)c(Nc2cc(-c3[nH]c(SC)nc3-c3cccc(NC(=O)c4c(F)cccc4CN4Cc5ccccc5C4=O)c3)ccn2)c1 | 720 | 180 | 1100 | 530 | > 10000 | IC50 [5]: 340 nM |
| C=CC(=O)Nc1ccc(OC)c(Nc2cc(-c3[nH]c(CC)nc3-c3cccc(NC(=O)c4cccc(O)c4CN4Cc5ccccc5C4=O)c3)ccn2)c1 | 1000 | 220 | 590 | 1500 | 2100 | EC50 (HCC827): 290 nM; IC50 [5]: 0.91 nM; Drug metabolism [7]: metabolite_notdetected; Stability [8]: Stable; EC50 (cells): 300 nM |
| C=CC(=O)Nc1ccc(OC)c(Nc2cc(-c3[nH]c(SC)nc3-c3cccc(NC(=O)c4ccccc4CN4Cc5ccccc5C4=O)c3)ccn2)c1 | 1700 | 170 | 880 | 1400 | > 10000 | Ki [9]: 814 nM; IC50 [5]: > 1000 nM; Ki [10]: 310 nM; Ki [11]: 234 nM |
| CSc1nc(-c2cccc(NC(=O)c3cccc(O)c3CN3Cc4ccccc4C3=O)c2)c(-c2ccnc(Nc3ccccc3)c2)[nH]1 | > 10000 | > 10000 | > 10000 | 4000 |  |  |
| CSc1nc(-c2cccc(NC(=O)c3cccc(O)c3CN3Cc4ccccc4C3=O)c2)c(-c2ccnc(Nc3ccc(N4CCNCC4)cc3)c2)[nH]1 | > 10000 | > 10000 | > 10000 | > 10000 | > 10000 |  |
| C=CC(=O)Nc1ccc(OC)c(Nc2cc(-c3[nH]c(SC)nc3-c3cccc(NC(=O)c4c(F)ccc(O)c4CN4Cc5ccccc5C4=O)c3)ccn2)c1 | 1100 | 370 | 1200 | 1400 | > 10000 | IC50 [5]: 1.6 nM |
| CS(=O)(=O)CCNCc1ccc(-c2ccc3ncnc(Nc4ccc(OCc5cccc(F)c5)c(Cl)c4)c3c2)o1 [LAPATINIB] |  |  |  |  |  | EC50 (HCC827): > 10000 nM; EC50 (cells): > 10000 nM |
| CSc1nc(-c2cccc(NC(=O)c3ccccc3CN3Cc4ccccc4C3=O)c2)c(-c2ccnc(NC(C)=O)c2)[nH]1 |  |  |  |  |  | IC50 [12]: > 1000 nM; IC50 [13]: 460 nM; IC50 [14]: 450 nM; IC50 [15]: 120 nM |
| CCC(=O)Nc1ccc(OC)c(Nc2cc(-c3[nH]c(SC)nc3-c3cccc(NC(=O)c4cccc(O)c4CN4Cc5ccccc5C4=O)c3)ccn2)c1 | 1100 | 1000 | > 10000 | 1800 | 1700 | EC50 (HCC827): 270 nM |

Now from value to molecule, other results behind:

| EC50 (BaF3 [2]) [nM] | EC50 (BaF3 [3]) [nM] | EC50 (BaF3 [4]) [nM] | EC50 (BaF3 [6]) [nM] | SMILES | EC50 (BaF3 [1]) [nM] | other results |
| --- | --- | --- | --- | --- | --- | --- |
| > 10000 | > 10000 | > 10000 | > 10000 | CCc1nc(-c2cccc(NC(=O)c3cccc(O)c3CN3Cc4ccccc4C3=O)c2)c(-c2ccnc(NC(C)=O)c2)[nH]1 |  |  |
| > 10000 | 2900 | > 10000 | > 10000 | CCOc1nc(-c2cccc(NC(=O)c3cccc(O)c3CN3Cc4ccccc4C3=O)c2)c(-c2ccnc(Nc3ccccc3)c2)[nH]1 |  |  |
| > 10000 | 3900 | > 10000 |  | CCc1nc(-c2cccc(NC(=O)c3cccc(O)c3CN3Cc4ccccc4C3=O)c2)c(-c2ccnc(Nc3ccccc3)c2)[nH]1 | > 10000 |  |
| > 10000 | > 10000 | > 10000 | > 10000 | CCOc1nc(-c2cccc(NC(=O)c3cccc(O)c3CN3Cc4ccccc4C3=O)c2)c(-c2ccnc(NC(C)=O)c2)[nH]1 |  |  |
| > 10000 | > 10000 | > 10000 | > 10000 | CSc1nc(-c2cccc(NC(=O)c3cccc(O)c3CN3Cc4ccccc4C3=O)c2)c(-c2ccnc(NC(C)=O)c2)[nH]1 |  |  |

Reference: ChEMBL document CHEMBL6092226, “Tilting the Scales toward EGFR Mutant Selectivity: Expanding the Scope of Bivalent "Type V" Kinase Inhibitors” (J Med Chem, 2024)
